ChEMBL document CHEMBL1201862, “PubChem BioAssay data set” (2004)
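Compound exposure: 48 hours, 5 concentrations, 96-well plates. The concentration for 50% growth inhibition is given as GI50.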 Activity calls are given as the source filed them. Rule as the data show it: active = GI50 up to about 1.1 µM and inactive = higher.

Key:
Experiment in all cases: growth of human tumour cells (NCI), 48 h
HOP-62 = system: HOP-62
KM-20L2 = system: KM-20L2
SF-268 = system: SF-268
NCI-H226 = system: NCI-H226
RXF 393 = system: RXF 393
HCT-15 = system: HCT-15
DMS-273 = system: DMS-273
HCC 2998 = system: HCC 2998
EKVX = system: EKVX
SK-MEL-28 = system: SK-MEL-28
DLD-1 = system: DLD-1
SNB-19 = system: SNB-19
M19-MEL = system: M19-MEL
SK-MEL-5 = system: SK-MEL-5
MOLT-4 = system: MOLT-4
SW-620 = system: SW-620
UACC-62 = system: UACC-62
A549 = system: A549
SNB-78 = system: SNB-78
NCI-H522 = system: NCI-H522
UACC-257 = system: UACC-257
SR = system: SR
TK-10 = system: TK-10
NCI-H460 = system: NCI-H460
NCI-H23 = system: NCI-H23
CCRF-CEM = system: CCRF-CEM
HOP-18 = system: HOP-18
COLO 205 = system: COLO 205
K562 = system: K562
786-0 = system: 786-0
DMS-114 = system: DMS-114
HT-29 = system: HT-29
SNB-75 = system: SNB-75
OVCAR-8 = system: OVCAR-8
SF-295 = system: SF-295
U-251 = system: U-251
RPMI-8226 = system: RPMI-8226
Malme-3M = system: Malme-3M
LXFL 529 = system: LXFL 529
OVCAR-5 = system: OVCAR-5
SN12C = system: SN12C
OVCAR-4 = system: OVCAR-4
SK-OV-3 = system: SK-OV-3
HOP-92 = system: HOP-92
M14 = system: M14
SF-539 = system: SF-539
SK-MEL-2 = system: SK-MEL-2
OVCAR-3 = system: OVCAR-3
IGROV-1 = system: IGROV-1
HCT-116 = system: HCT-116
LOX IMVI = system: LOX IMVI
ACHN = system: ACHN
HL-60 = system: HL-60
UO-31 = system: UO-31
A498 = system: A498
XF498 = system: XF498
CAKI-1 = system: CAKI-1
KM12 = system: KM12

Question: For `Cc1ccc(NC(=O)C2C3C=CC(O3)C2C(=O)O)cc1` (stereo not drawn), which GI50 (HOP-62) is on record?
Answer: > 100 µM (inactive)

Question: And the GI50 (KM-20L2)?
Answer: > 100 µM (inactive)

Question: And the GI50 (SF-268)?
Answer: > 100 µM (inactive)

Question: And the GI50 (NCI-H226)?
Answer: > 100 µM (inactive)

Question: And the GI50 (RXF 393)?
Answer: 23.6 µM (inactive)

Question: What about the GI50 (HCT-15) of the same molecule?
Answer: > 100 µM

Question: And the GI50 (DMS-273)?
Answer: > 100 µM (inactive)

Question: What about the GI50 (HCC 2998) of the same molecule?
Answer: > 100 µM (inactive)

Question: And the GI50 (EKVX)?
Answer: > 100 µM (inactive)

Question: And the GI50 (SK-MEL-28)?
Answer: > 100 µM (inactive)

Question: What about the GI50 (DLD-1) of the same molecule?
Answer: > 100 µM (inactive)

Question: What about the GI50 (SNB-19) of the same molecule?
Answer: > 100 µM (inactive)

Question: What about the GI50 (M19-MEL) of the same molecule?
Answer: > 100 µM (inactive)

Question: And the GI50 (SK-MEL-5)?
Answer: > 100 µM (inactive)

Question: And the GI50 (MOLT-4)?
Answer: > 100 µM (inactive)

Question: And the GI50 (SW-620)?
Answer: 8.83 µM (inactive)

Question: And the GI50 (UACC-62)?
Answer: > 100 µM (inactive)

Question: What about the GI50 (A549) of the same molecule?
Answer: > 100 µM (inactive)

Question: What about the GI50 (SNB-78) of the same molecule?
Answer: > 100 µM (inactive)

Question: What about the GI50 (NCI-H522) of the same molecule?
Answer: > 100 µM (inactive)

Question: And the GI50 (UACC-257)?
Answer: 87.1 µM (inactive)

Question: What about the GI50 (SR) of the same molecule?
Answer: > 100 µM (inactive)

Question: What about the GI50 (TK-10) of the same molecule?
Answer: > 100 µM (inactive)

Question: And the GI50 (NCI-H460)?
Answer: > 100 µM (inactive)

Question: What about the GI50 (NCI-H23) of the same molecule?
Answer: > 100 µM (inactive)

Question: And the GI50 (CCRF-CEM)?
Answer: 83.9 µM (inactive)

Question: And the GI50 (HOP-18)?
Answer: > 100 µM (inactive)

Question: And the GI50 (COLO 205)?
Answer: 45 µM (inactive)

Question: What about the GI50 (K562) of the same molecule?
Answer: > 100 µM (inactive)

Question: What about the GI50 (786-0) of the same molecule?
Answer: 53.3 µM (inactive)

Question: And the GI50 (DMS-114)?
Answer: 66.8 µM (inactive)

Question: And the GI50 (HT-29)?
Answer: 19.8 µM (inactive)

Question: What about the GI50 (SNB-75) of the same molecule?
Answer: > 100 µM (inactive)

Question: What about the GI50 (OVCAR-8) of the same molecule?
Answer: > 100 µM (inactive)

Question: What about the GI50 (SF-295) of the same molecule?
Answer: > 100 µM (inactive)

Question: What about the GI50 (U-251) of the same molecule?
Answer: > 100 µM (inactive)

Question: And the GI50 (RPMI-8226)?
Answer: 24.3 µM (inactive)

Question: What about the GI50 (Malme-3M) of the same molecule?
Answer: > 100 µM (inactive)

Question: And the GI50 (LXFL 529)?
Answer: > 100 µM (inactive)

Question: What about the GI50 (OVCAR-5) of the same molecule?
Answer: > 100 µM (inactive)

Question: What about the GI50 (SN12C) of the same molecule?
Answer: > 100 µM (inactive)

Question: And the GI50 (OVCAR-4)?
Answer: > 100 µM (inactive)

Question: What about the GI50 (SK-OV-3) of the same molecule?
Answer: > 100 µM (inactive)

Question: And the GI50 (HOP-92)?
Answer: > 100 µM (inactive)

Question: What about the GI50 (M14) of the same molecule?
Answer: > 100 µM (inactive)

Question: And the GI50 (SF-539)?
Answer: > 100 µM (inactive)

Question: What about the GI50 (SK-MEL-2) of the same molecule?
Answer: > 100 µM (inactive)

Question: What about the GI50 (OVCAR-3) of the same molecule?
Answer: > 100 µM (inactive)

Question: And the GI50 (IGROV-1)?
Answer: > 100 µM (inactive)

Question: What about the GI50 (HCT-116) of the same molecule?
Answer: > 100 µM (inactive)

Question: And the GI50 (LOX IMVI)?
Answer: 23.7 µM (inactive)

Question: And the GI50 (ACHN)?
Answer: > 100 µM (inactive)

Question: And the GI50 (HL-60)?
Answer: 61.5 µM (inactive)

Question: And the GI50 (UO-31)?
Answer: > 100 µM (inactive)

Question: What about the GI50 (A498) of the same molecule?
Answer: > 100 µM (inactive)

Question: And the GI50 (XF498)?
Answer: 71.9 µM (inactive)

Question: For `O=C(O)c1ccc(C2COc3ccc(Cl)cc3C2)cc1` (stereo not drawn), which GI50 (HOP-62) is on record?
Answer: > 100 µM (inactive)

Question: What about the GI50 (KM-20L2) of the same molecule?
Answer: > 100 µM (inactive)

Question: And the GI50 (SF-268)?
Answer: > 100 µM (inactive)

Question: And the GI50 (CAKI-1)?
Answer: > 100 µM (inactive)

Question: What about the GI50 (NCI-H226) of the same molecule?
Answer: > 100 µM (inactive)

Question: What about the GI50 (RXF 393) of the same molecule?
Answer: > 100 µM (inactive)

Question: And the GI50 (HCT-15)?
Answer: > 100 µM

Question: And the GI50 (DMS-273)?
Answer: > 100 µM (inactive)

Question: And the GI50 (HCC 2998)?
Answer: > 100 µM (inactive)

Question: And the GI50 (EKVX)?
Answer: > 100 µM (inactive)

Question: What about the GI50 (SK-MEL-28) of the same molecule?
Answer: > 100 µM (inactive)

Question: What about the GI50 (DLD-1) of the same molecule?
Answer: > 100 µM (inactive)

Question: And the GI50 (SNB-19)?
Answer: > 100 µM (inactive)

Question: What about the GI50 (M19-MEL) of the same molecule?
Answer: > 100 µM (inactive)

Question: What about the GI50 (SK-MEL-5) of the same molecule?
Answer: > 100 µM (inactive)

Question: What about the GI50 (MOLT-4) of the same molecule?
Answer: > 100 µM (inactive)

Question: And the GI50 (SW-620)?
Answer: > 100 µM (inactive)

Question: And the GI50 (UACC-62)?
Answer: > 100 µM (inactive)

Question: What about the GI50 (A549) of the same molecule?
Answer: > 100 µM (inactive)

Question: What about the GI50 (SNB-78) of the same molecule?
Answer: > 100 µM (inactive)

Question: And the GI50 (NCI-H522)?
Answer: > 100 µM (inactive)

Question: And the GI50 (UACC-257)?
Answer: > 100 µM (inactive)

Question: What about the GI50 (SR) of the same molecule?
Answer: > 100 µM (inactive)

Question: What about the GI50 (TK-10) of the same molecule?
Answer: > 100 µM (inactive)

Question: And the GI50 (NCI-H460)?
Answer: > 100 µM (inactive)

Question: What about the GI50 (NCI-H23) of the same molecule?
Answer: > 100 µM (inactive)

Question: What about the GI50 (CCRF-CEM) of the same molecule?
Answer: > 100 µM (inactive)

Question: What about the GI50 (HOP-18) of the same molecule?
Answer: > 100 µM (inactive)

Question: What about the GI50 (COLO 205) of the same molecule?
Answer: > 100 µM (inactive)

Question: What about the GI50 (K562) of the same molecule?
Answer: > 100 µM (inactive)

Question: And the GI50 (786-0)?
Answer: > 100 µM (inactive)

Question: What about the GI50 (DMS-114) of the same molecule?
Answer: > 100 µM (inactive)

Question: What about the GI50 (HT-29) of the same molecule?
Answer: > 100 µM (inactive)

Question: And the GI50 (SNB-75)?
Answer: 31.6 µM (inactive)

Question: And the GI50 (OVCAR-8)?
Answer: > 100 µM (inactive)

Question: And the GI50 (SF-295)?
Answer: > 100 µM (inactive)

Question: What about the GI50 (U-251) of the same molecule?
Answer: > 100 µM (inactive)

Question: What about the GI50 (KM12) of the same molecule?
Answer: > 100 µM (inactive)

Question: And the GI50 (RPMI-8226)?
Answer: > 100 µM (inactive)

Question: And the GI50 (Malme-3M)?
Answer: > 100 µM (inactive)

Question: What about the GI50 (LXFL 529) of the same molecule?
Answer: > 100 µM (inactive)

Question: What about the GI50 (OVCAR-5) of the same molecule?
Answer: > 100 µM (inactive)

Question: What about the GI50 (SN12C) of the same molecule?
Answer: > 100 µM (inactive)

Question: And the GI50 (SK-OV-3)?
Answer: > 100 µM (inactive)

Question: And the GI50 (HOP-92)?
Answer: > 100 µM (inactive)

Question: What about the GI50 (M14) of the same molecule?
Answer: > 100 µM (inactive)

Question: What about the GI50 (SF-539) of the same molecule?
Answer: > 100 µM (inactive)

Question: What about the GI50 (SK-MEL-2) of the same molecule?
Answer: > 100 µM (inactive)

Question: And the GI50 (OVCAR-3)?
Answer: > 100 µM (inactive)

Question: What about the GI50 (IGROV-1) of the same molecule?
Answer: > 100 µM (inactive)

Question: And the GI50 (HCT-116)?
Answer: > 100 µM (inactive)

Question: And the GI50 (LOX IMVI)?
Answer: > 100 µM (inactive)

Question: What about the GI50 (ACHN) of the same molecule?
Answer: > 100 µM (inactive)

Question: And the GI50 (HL-60)?
Answer: > 100 µM (inactive)

Question: And the GI50 (UO-31)?
Answer: > 100 µM (inactive)

Question: And the GI50 (A498)?
Answer: > 100 µM (inactive)

Question: And the GI50 (XF498)?
Answer: > 100 µM (inactive)
